Data on one molecule can be found in US11266755B2, “Development and application of tumor diagnostic radioactive probe targeting folic acid receptor” (Kyungpook National University Industry-Academic Cooperation …, priority 2017, dated 2022).

For the assay, the system named is MDA-MB-231/Luc+. Kind of assay: PET imaging in breast cancer bone metastasis model. In kind it is in vivo. Conditions: PET 1 hour after injection into the tail vein, same mouse, FIG. 13B. As to the method: For the breast cancer metastasis model, MDA-MB-231/Luc+ was used, and after 10 days of direct injection of 1×10^5 cells into the left ventricle, IVIS-assisted luminescence images confirmed that bone metastasis occurred to the femoral bones. After verifying the establishment of bone metastasis model of breast cancer, further experiments were carried out (FIG. 12A).

In the case of `OC[C@H]1O[C@@H](O)[C@H]([18F])[C@@H](O)[C@@H]1O` [FDG], the “PET detection of breast cancer bone metastasis” value is “difficult to identify the tumor site clearly due to high background uptake”.
